Results as given in patent publication US20250243180A1, “TARGETED PROTEIN DEGRADATION” (Monte Rosa Therapeutics AG, priority 2023, published 2025).
Like-named read-outs stand apart in the source and are kept apart here.

Key:
CRBN-DDB1 = CRBN-DDB1 (Homo sapiens (Human), UniProt Q96SW2); experiment: Compound binding to CRBN by HTRF assay
Outline: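 HTRF displacement of Cy5-thalidomide probe (100 nM) from His-tagged CRBN-DDB1 (2.5 nM) with anti-His terbium cryptate, in HEPES/NaCl/TCEP/EDTA/Tween20 buffer; 11-point 1:3 dilution series, 30 min at ambient temperature. Signal (665/620 nm) normalized to lenalidomide and DMSO controls; EC50 fitted, Ki by Cheng-Prusoff from geometric mean EC50.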

NEK7 = NEK7 (Homo sapiens (Human), UniProt Q8TDX7+Q96SW2); experiment: NEK7 NanoBiT degradation assay in Cal51 NEK7 NanoBiT cell line; type: cell-based; conditions: Cal51 NEK7 NanoBiT cells, 24 hours; for Dmax: CAL-51
Outline: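 Cal51 cells with CRISPR knock-in HiBiT-tagged endogenous NEK7 plus stable LgBiT, in live-cell Endurazine medium, seeded 16 h before dosing. Compounds at final 1 μM to 0.05 nM for 24 h at 37 °C, then luminescence read. Response normalized to plate controls and fitted with a 4-parameter logistic giving EC50.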

[1] = NEK7 degradation, read-out: NanoBiT Dmax
[2] = NEK7 degradation, read-out: NanoBiT DC50

Sequence of CRBN-DDB1 (Q96SW2 whole entry): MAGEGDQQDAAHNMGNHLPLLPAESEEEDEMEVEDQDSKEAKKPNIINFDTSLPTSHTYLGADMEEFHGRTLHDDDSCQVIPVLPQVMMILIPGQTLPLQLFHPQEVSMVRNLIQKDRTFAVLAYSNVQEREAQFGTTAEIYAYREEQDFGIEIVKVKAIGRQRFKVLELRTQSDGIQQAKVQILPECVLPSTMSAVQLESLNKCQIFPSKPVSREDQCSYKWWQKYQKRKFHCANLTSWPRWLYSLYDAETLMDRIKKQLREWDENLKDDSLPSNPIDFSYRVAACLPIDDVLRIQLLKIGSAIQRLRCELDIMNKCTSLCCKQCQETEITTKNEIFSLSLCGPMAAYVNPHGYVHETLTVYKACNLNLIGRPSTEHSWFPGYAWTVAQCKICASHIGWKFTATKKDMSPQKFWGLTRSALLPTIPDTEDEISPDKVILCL
Sequence of CRBN-DDB1 (Q16531 whole entry partner): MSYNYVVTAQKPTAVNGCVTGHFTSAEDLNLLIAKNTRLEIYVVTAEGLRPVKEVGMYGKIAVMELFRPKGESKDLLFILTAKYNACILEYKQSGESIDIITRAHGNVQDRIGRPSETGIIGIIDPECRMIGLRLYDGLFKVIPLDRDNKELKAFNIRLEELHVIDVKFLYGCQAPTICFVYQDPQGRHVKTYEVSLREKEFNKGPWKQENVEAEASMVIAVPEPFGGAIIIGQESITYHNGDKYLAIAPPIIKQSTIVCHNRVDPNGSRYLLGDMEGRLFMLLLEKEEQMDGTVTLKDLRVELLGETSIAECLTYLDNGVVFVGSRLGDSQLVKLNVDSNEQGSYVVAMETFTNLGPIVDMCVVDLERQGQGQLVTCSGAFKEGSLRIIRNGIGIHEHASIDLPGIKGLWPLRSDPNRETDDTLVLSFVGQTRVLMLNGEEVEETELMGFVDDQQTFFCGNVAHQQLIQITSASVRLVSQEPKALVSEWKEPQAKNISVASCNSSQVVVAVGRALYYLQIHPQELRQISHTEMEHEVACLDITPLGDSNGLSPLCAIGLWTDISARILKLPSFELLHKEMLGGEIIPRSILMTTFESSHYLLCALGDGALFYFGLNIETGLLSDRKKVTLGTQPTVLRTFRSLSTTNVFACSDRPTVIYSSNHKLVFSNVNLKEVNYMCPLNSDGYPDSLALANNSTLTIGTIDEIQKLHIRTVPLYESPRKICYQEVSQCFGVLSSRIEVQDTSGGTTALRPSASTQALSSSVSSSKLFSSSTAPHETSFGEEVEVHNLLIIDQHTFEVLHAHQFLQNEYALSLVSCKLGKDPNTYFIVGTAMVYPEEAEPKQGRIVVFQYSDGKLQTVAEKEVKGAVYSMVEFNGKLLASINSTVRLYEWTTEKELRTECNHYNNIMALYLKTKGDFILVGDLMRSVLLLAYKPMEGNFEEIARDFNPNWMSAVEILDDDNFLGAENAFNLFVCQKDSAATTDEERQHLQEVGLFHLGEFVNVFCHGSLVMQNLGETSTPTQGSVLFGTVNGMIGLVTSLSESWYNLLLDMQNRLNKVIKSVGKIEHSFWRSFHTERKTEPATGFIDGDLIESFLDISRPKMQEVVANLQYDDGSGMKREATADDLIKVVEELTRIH
Sequence of NEK7 (Q8TDX7 whole entry): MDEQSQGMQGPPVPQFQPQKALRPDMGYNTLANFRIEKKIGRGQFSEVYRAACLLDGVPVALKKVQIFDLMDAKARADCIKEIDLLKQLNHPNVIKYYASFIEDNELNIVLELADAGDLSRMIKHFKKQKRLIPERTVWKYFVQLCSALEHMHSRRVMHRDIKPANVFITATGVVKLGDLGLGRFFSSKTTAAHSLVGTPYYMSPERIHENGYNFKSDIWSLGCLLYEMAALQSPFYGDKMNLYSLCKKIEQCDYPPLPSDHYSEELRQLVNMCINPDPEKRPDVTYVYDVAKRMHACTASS
Sequence of NEK7 (Q96SW2 whole entry): as the sequence (Q96SW2 whole entry) above
Sequence of NEK7 (Q16531 2-1140 partner): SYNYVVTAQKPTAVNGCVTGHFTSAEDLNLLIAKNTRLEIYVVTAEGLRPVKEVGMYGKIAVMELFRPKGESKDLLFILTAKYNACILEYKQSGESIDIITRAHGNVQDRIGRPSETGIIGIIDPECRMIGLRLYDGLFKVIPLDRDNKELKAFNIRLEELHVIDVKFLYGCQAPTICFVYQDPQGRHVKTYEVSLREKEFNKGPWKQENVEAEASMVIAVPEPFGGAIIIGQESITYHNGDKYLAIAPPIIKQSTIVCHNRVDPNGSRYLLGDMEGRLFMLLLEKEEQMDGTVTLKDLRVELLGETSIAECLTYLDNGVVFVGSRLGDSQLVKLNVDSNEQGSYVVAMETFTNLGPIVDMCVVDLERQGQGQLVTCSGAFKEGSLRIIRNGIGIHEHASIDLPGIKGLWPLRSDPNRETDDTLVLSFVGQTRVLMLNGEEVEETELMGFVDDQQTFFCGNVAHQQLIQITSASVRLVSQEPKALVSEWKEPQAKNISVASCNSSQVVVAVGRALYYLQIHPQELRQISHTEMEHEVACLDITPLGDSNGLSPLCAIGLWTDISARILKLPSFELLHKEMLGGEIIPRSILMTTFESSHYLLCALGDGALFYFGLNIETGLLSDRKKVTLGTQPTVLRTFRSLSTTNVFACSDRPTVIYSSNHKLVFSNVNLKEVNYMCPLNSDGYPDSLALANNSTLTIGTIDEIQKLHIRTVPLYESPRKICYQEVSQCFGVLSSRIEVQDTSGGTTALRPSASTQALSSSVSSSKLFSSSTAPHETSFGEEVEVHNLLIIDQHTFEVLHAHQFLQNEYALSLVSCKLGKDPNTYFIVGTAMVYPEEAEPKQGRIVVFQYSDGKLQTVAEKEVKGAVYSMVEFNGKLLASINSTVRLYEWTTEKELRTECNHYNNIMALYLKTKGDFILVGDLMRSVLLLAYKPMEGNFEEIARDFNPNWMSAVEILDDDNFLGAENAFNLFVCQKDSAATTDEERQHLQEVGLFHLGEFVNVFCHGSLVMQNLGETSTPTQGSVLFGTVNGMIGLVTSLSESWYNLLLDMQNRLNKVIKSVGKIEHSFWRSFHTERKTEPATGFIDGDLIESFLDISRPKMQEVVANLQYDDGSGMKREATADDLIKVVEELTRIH

SMILES | EC50 (CRBN-DDB1) [nM] | EC50 (CRBN-DDB1; HTRF class, Cereblon binding) [nM] | Dmax (NEK7; read-out: NEK7 NanoBiT Dmax) [%] | Dmax (NEK7; [1]) [%] | DC50 (NEK7; read-out: NEK7 NanoBiT DC50) [nM] | DC50 (NEK7; [2]) [nM]
O=C1CCC(c2c(Cl)cc(CNC(=O)C3(c4ccc(F)cc4)CC(F)(F)C3)cc2Cl)C(=O)N1 (stereo not drawn) [Compound 139, N-(3,5-dichloro-4-(2,6-dioxopiperidin-3-yl)benzyl)-3,3-difluoro-1-(4-fluorophenyl)cyclobutane-carboxamide] | 40 | ≤ 100 | 90 | > 75 | 8 | ≤ 100
O=C1CCC(c2c(Cl)cc(CNC(=O)C3(c4ccc(F)cc4)COC3)cc2Cl)C(=O)N1 (stereo not drawn) [Compound 140] | 90 | ≤ 100 | 89 | > 75 | 14 | ≤ 100
O=C1CCC(c2c(Cl)cc(CNC(=O)C3(c4ccc(F)cc4)CCOC3)cc2Cl)C(=O)N1 (stereo not drawn) [Compound 141] | 20 | ≤ 100 | 91 | > 75 | 6 | ≤ 100
O=C1CCC(c2c(Cl)cc(CNC(=O)C3(c4ccc(F)cc4)CCOCC3)cc2Cl)C(=O)N1 (stereo not drawn) [Compound 142] | 50 | ≤ 100 | 94 | > 75 | 3 | ≤ 100
O=C1CCC(c2c(Cl)cc(CNC(=O)C3(c4ccncc4)CCCC3)cc2Cl)C(=O)N1 (stereo not drawn) [Compound 143, N-(3,5-dichloro-4-(2,6-dioxopiperidin-3-yl)benzyl)-1-(pyridin-4-yl)cyclopentane-1-carboxamide] | 40 | ≤ 100 | 92 | > 75 | 3 | ≤ 100
O=C1CCC(c2c(Cl)cc(CNC(=O)C3(c4ccncc4)CCC3)cc2Cl)C(=O)N1 (stereo not drawn) [Compound 144] | 50 | ≤ 100 | 78 | > 75 | 6 | ≤ 100
Cc1cc(C(C)(C)C(=O)NCc2cc(Cl)c(C3CCC(=O)NC3=O)c(Cl)c2)no1 (stereo not drawn) [Compound 145] | 430 | 100 to 1000 | 86 | > 75 | 10 | ≤ 100
CC(C)(C(=O)NCc1cc(Cl)c(C2CCC(=O)NC2=O)c(Cl)c1)c1cc2ocnc2cn1 (stereo not drawn) [Compound 146] | 180 | 100 to 1000 | 91 | > 75 | 5 | ≤ 100
CC(C)(O)c1cnc(C(C)(C)C(=O)NCc2cc(Cl)c(C3CCC(=O)NC3=O)c(Cl)c2)nc1 (stereo not drawn) [Compound 147] | 550 | 100 to 1000 | 52 | 50 to 75 | 776 | 100 to 1000
Cn1cccc(C(C)(C)C(=O)NCc2cc(Cl)c(C3CCC(=O)NC3=O)c(Cl)c2)c1=O (stereo not drawn) [Compound 148, N-(3,5-dichloro-4-(2,6-dioxopiperidin-3-yl)benzyl)-2-methyl-2-(1-methyl-2-oxo-1,2-dihydropyridin-3-yl)propanamide] | 150 | 100 to 1000 | 58 | 50 to 75 | 176 | 100 to 1000
CC(C)(C(=O)NCc1cc(Cl)c(C2CCC(=O)NC2=O)c(Cl)c1)c1cc(F)ccn1 (stereo not drawn) [Compound 149] | 130 | 100 to 1000 | 85 | > 75 | 12 | ≤ 100
Cc1nccc(C(C)(C)C(=O)NCc2cc(Cl)c(C3CCC(=O)NC3=O)c(Cl)c2)n1 (stereo not drawn) [Compound 150] | 150 | 100 to 1000 | 53 | 50 to 75 | 91 | ≤ 100
CC(C)(C(=O)NCc1cc(Cl)c(C2CCC(=O)NC2=O)c(Cl)c1)c1cc(C2CC2)ncn1 (stereo not drawn) [Compound 151] | 480 | 100 to 1000 | 60 | 50 to 75 | 88 | ≤ 100
CC(C)(C(=O)NCc1cc(Cl)c(C2CCC(=O)NC2=O)c(Cl)c1)c1ccnc(C(F)F)n1 (stereo not drawn) [Compound 156, N-(3,5-dichloro-4-(2,6-dioxopiperidin-3-yl)benzyl)-2-(2-(difluoromethyl)pyrimidin-4-yl)-2-methylpropanamide] | 330 | 100 to 1000 | 54 | 50 to 75 | 435 | 100 to 1000
CC(C)(C(=O)NCc1cc(Cl)c(C2CCC(=O)NC2=O)c(Cl)c1)c1cc(C#N)ccn1 (stereo not drawn) [Compound 157] | 190 | 100 to 1000 | 60 | 50 to 75 | 178 | 100 to 1000
Cc1cncnc1C(C)(C)C(=O)NCc1cc(Cl)c(C2CCC(=O)NC2=O)c(Cl)c1 (stereo not drawn) [Compound 158] | 320 | 100 to 1000 | 91 | > 75 | 8 | ≤ 100

SMILES | EC50 (CRBN-DDB1) [nM] | EC50 (CRBN-DDB1; HTRF class, Cereblon binding) [nM] | Dmax (NEK7; read-out: NEK7 NanoBiT Dmax) [%] | Dmax (NEK7; [1]) [%] | DC50 (NEK7; read-out: NEK7 NanoBiT DC50) [nM] | DC50 (NEK7; [2]) [nM]
CC(C)(C(=O)NCc1cc(Cl)c(C2CCC(=O)NC2=O)c(Cl)c1)c1cc(C(F)F)ncn1 (stereo not drawn) [Compound 159] | 280 | 100 to 1000 | 79 | > 75 | 28 | ≤ 100
Cc1ccnc(C(C)(C)C(=O)NCc2cc(Cl)c(C3CCC(=O)NC3=O)c(Cl)c2)n1 (stereo not drawn) [Compound 160] | 200 | 100 to 1000 | 76 | > 75 | 34 | ≤ 100
CC(C)(C(=O)NCc1cc(Cl)c(C2CCC(=O)NC2=O)c(Cl)c1)c1cnccn1 (stereo not drawn) [Compound 161] | 230 | 100 to 1000 | 69 | 50 to 75 | 54 | ≤ 100
Cc1cnc(C(C)(C)C(=O)NCc2cc(Cl)c(C3CCC(=O)NC3=O)c(Cl)c2)o1 (stereo not drawn) [Compound 163] | 250 | 100 to 1000 | 80 | > 75 | 18 | ≤ 100
Cc1noc(C(C)(C)C(=O)NCc2cc(Cl)c(C3CCC(=O)NC3=O)c(Cl)c2)n1 (stereo not drawn) [Compound 164] | 240 | 100 to 1000 | 68 | 50 to 75 | 66 | ≤ 100
CC(C)(C(=O)NCc1cc(Cl)c(C2CCC(=O)NC2=O)c(Cl)c1)c1ncc(N2CCC2)cn1 (stereo not drawn) [Compound 165] | 170 | 100 to 1000 | 69 | 50 to 75 | 47 | ≤ 100
CC(C)(C(=O)NCc1cc(Cl)c(C2CCC(=O)NC2=O)c(Cl)c1)N1CCc2ccccc21 (stereo not drawn) [Compound 166, N-(3,5-dichloro-4-(2,6-dioxopiperidin-3-yl)benzyl)-2-(indolin-1-yl)-2-methylpropanamide] | 90 | ≤ 100 | 56 | 50 to 75 | 203 | 100 to 1000
CC(C)(C(=O)NCc1cc(Cl)c(C2CCC(=O)NC2=O)c(Cl)c1)c1nc2ccccc2o1 (stereo not drawn) [Compound 167] | 90 | ≤ 100 | 96 | > 75 | 1 | ≤ 100
CC(C)(C(=O)NCc1cc(Cl)c(C2CCC(=O)NC2=O)c(Cl)c1)c1nccc(C2CC2)n1 (stereo not drawn) [Compound 168] | 150 | 100 to 1000 | 57 | 50 to 75 | 137 | 100 to 1000
O=C1CCC(c2c(Cl)cc(CNC(=O)C3(c4ncccn4)CCC3)cc2Cl)C(=O)N1 (stereo not drawn) [Compound 169, N-(3,5-dichloro-4-(2,6-dioxopiperidin-3-yl)benzyl)-1-(pyrimidin-2-yl)cyclobutane-1-carboxamide] | 180 | 100 to 1000 | 75 | 50 to 75 | 42 | ≤ 100
CC(C)(C(=O)NCc1cc(Cl)c(C2CCC(=O)NC2=O)c(Cl)c1)N1Cc2ccccc2C1 (stereo not drawn) [Compound 170, N-(3,5-dichloro-4-(2,6-dioxopiperidin-3-yl)benzyl)-2-(isoindolin-2-yl)-2-methylpropanamide] | 180 | 100 to 1000 | 73 | 50 to 75 | 55 | ≤ 100
CC(C)(C(=O)NCc1cc(Cl)c(C2CCC(=O)NC2=O)c(Cl)c1)c1cccc2ocnc12 (stereo not drawn) [Compound 171] | 120 | 100 to 1000 | 90 | > 75 | 7 | ≤ 100
Cn1c(F)cc(C(C)(C)C(=O)NCc2cc(Cl)c(C3CCC(=O)NC3=O)c(Cl)c2)cc1=O (stereo not drawn) [Compound 172] | 190 | 100 to 1000 | 97 | > 75 | 2 | ≤ 100
Cc1cc(C(C)(C)C(=O)NCc2cc(Cl)c(C3CCC(=O)NC3=O)c(Cl)c2)ncn1 (stereo not drawn) [Compound 173] | 230 | 100 to 1000 | 85 | > 75 | 19 | ≤ 100
CC(C)(C(=O)NCc1cc(Cl)c(C2CCC(=O)NC2=O)c(Cl)c1)c1nccc(C(F)(F)F)n1 (stereo not drawn) [Compound 174] | 180 | 100 to 1000 | 77 | > 75 | 30 | ≤ 100
CC(C)(C(=O)NCc1cc(Cl)c(C2CCC(=O)NC2=O)c(Cl)c1)c1ncc(C(F)(F)F)cn1 (stereo not drawn) [Compound 175] | 280 | 100 to 1000 | 94 | > 75 | 6 | ≤ 100
